Several values for one entry are separate records, joined by “and”; a condition that tells them apart may be missing. Equal entries are not always repeated.
Target: PI3Kγ (Homo sapiens, UniProt P48736)
Assay: PI3K Inhibition Assay (33P-ATP, PI(4,5)P2 substrate, filter plate scintillation counting)
Format: biochemical
Conditions: 3 μM ATP, 30 μM PI(4,5)P2, 2 nM final enzyme, 30 min at 25° C.; competitive tight binding Ki fit; read-out: Ki for PI3Kγ
Method: One test well also contained 1.5 μL of DMSO with no compound. […] Using a Titertek Multidrop, 50 μL of Reaction Mix [100 mM HEPES pH 7.5, 50 mM NaCl, 10 mM DTT, 0.2 mg/mL BSA, 60 μM phosphatidylinositol(4,5)-bisphosphate diC16 (PI(4,5)P2; Avanti Polar Lipids, Cat. No. 840046P) and PI3K isoform of interest (see Table 3 for isoform concentrations)] was added to each well. To initiate the reaction, 50 μL of ATP Mix [20 mM MgCl2, 6 μM ATP (100 μCi/μmole ^33P-ATP)] was added each well, followed by incubating the wells for 30 min. at 25° C. Final concentrations in each well were 50 mM HEPES 7.5, 10 mM MgCl2, 25 mM NaCl, 5 mM DTT, 0.1 mg/mL BSA, 30 μM PI(4,5)P2, 3 μM ATP, and the PI3K isoform of interest (see Table 3). Final compound concentrations in each well ranged from 10 μM to 1 nM.
After incubation, the reactions in each well were quenched by addition of 50 μL of stop solution [30% TCA/Water, 10 mM ATP]. […] 50 μL of scintillation fluid was added to each well and the plate read on a Perkin-Elmer TopCount™ NXT liquid scintillation counter to obtain ^33P-counts representing inhibition values.
The value for the background well was subtracted from the value obtained for each test well and the data were fit to the competitive tight binding Ki equation described by Morrison and Stone, Comments Mol. Cell Biophys.

PI3Kγ, sequence (P48736 whole entry, species assumed): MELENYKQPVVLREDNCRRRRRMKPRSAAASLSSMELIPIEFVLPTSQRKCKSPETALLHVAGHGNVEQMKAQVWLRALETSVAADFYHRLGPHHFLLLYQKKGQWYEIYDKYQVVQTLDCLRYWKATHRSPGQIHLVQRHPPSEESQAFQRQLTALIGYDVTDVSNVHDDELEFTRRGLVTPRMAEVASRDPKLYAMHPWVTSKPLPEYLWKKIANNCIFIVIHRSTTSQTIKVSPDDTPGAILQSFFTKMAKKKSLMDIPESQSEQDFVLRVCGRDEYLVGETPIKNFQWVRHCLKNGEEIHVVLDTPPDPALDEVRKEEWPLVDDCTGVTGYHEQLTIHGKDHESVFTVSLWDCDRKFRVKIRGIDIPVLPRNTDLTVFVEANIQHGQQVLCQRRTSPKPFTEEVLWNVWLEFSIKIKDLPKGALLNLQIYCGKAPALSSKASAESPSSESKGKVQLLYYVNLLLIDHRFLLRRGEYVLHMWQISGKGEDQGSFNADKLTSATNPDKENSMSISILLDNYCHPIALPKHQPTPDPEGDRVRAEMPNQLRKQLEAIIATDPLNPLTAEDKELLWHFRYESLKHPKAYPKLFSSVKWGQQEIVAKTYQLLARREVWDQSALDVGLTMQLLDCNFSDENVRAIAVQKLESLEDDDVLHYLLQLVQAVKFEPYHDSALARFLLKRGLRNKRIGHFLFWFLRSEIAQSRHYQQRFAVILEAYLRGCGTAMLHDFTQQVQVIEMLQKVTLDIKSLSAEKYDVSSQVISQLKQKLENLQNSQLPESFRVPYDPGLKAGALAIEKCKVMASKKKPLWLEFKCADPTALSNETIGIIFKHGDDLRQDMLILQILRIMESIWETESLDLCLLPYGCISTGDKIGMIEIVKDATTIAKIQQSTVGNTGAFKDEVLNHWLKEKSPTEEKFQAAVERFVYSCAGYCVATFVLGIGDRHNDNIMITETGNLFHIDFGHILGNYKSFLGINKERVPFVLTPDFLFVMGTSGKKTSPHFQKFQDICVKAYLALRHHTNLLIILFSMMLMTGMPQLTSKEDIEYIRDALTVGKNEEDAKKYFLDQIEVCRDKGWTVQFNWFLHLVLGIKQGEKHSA

Question: For `CC(=O)Nc1nc2c(s1)CN(c1cncc(C(F)(F)F)n1)CC2` [Compound 17], which Ki is on record?
Answer: Its Ki is under 100 nM.

Question: `COc1cc(N2CCc3nc(NC=O)sc3C2)cnc1OC` [Compound 15] was tested. Which Ki did it give?
Answer: The Ki was under 100 nM.

Question: For `COc1cncc(N2CCc3nc(Nc4cnccn4)sc3C2)c1` [Compound 18, 4,5,6,7-tetrahydro-5-(5-methoxypyridin-3-yl)-N-(pyrazin-2-yl)thiazolo[5,4-c]pyridin-2-amine], which Ki is on record?
Answer: The Ki was under 100 nM.

Question: `CC(=O)Nc1nc2c(s1)CN(c1cncc(C(F)(F)F)c1)CC2` [Compound 7] was tested. Which Ki did it give?
Answer: Its Ki is under 100 nM.

Question: With `CCCOCCNC(=O)Nc1nc2c(s1)CN(c1cncc(C(F)(F)F)c1)CC2` [Compound 12] as the compound, how does the Ki read?
Answer: The Ki was under 20 nM.

Question: For `COc1cc(N2CCc3nc(NC(=O)NCCCO)sc3C2)cnc1Cl` [Compound 50], which Ki is on record?
Answer: Its Ki is under 100 nM.

Question: With `CCOC(=O)CCCNC(=O)Nc1nc2c(s1)CN(c1cnc(Cl)c(OC)c1)CC2` [Compound 34] as the compound, how does the Ki read?
Answer: Its Ki is under 100 nM.

Question: Which Ki does the source give for `COCC(=O)Nc1nc2c(s1)CN(c1cncc(OC)c1)CC2` [Compound 4] here?
Answer: Its Ki is under 100 nM.

Question: `COc1ncc(N2CCc3nc(NC(C)=O)sc3C2)nc1OC` [Compound 14, N-(4,5,6,7-tetrahydro-5-(5,6-dimethoxypyrazin-2-yl)thiazolo[5,4-c]pyridin-2-yl)acetamide] was tested. Which Ki did it give?
Answer: Its Ki is under 20 nM.

Question: `COCC(=O)Nc1nc2c(s1)CN(c1cncc(C(F)(F)F)c1)CC2` [Compound 8] was tested. Which Ki did it give?
Answer: Its Ki is under 100 nM.

Question: For `CCNC(=O)Nc1nc2c(s1)CN(c1cncc(C(F)(F)F)c1)CC2` [Compound 6], which Ki is on record?
Answer: The Ki was under 100 nM.

Question: Which Ki does the source give for `COc1cc(N2CCc3nc(NC(=O)NCCCN(C)C)sc3C2)cnc1Cl` [Compound 37] here?
Answer: Its Ki is under 100 nM.

Question: Which Ki does the source give for `COc1cc(N2CCc3nc(NC(=O)CNC(=O)c4ccccn4)sc3C2)cnc1OC` [Compound 33] here?
Answer: The Ki was under 100 nM.

Question: With `COc1cc(N2CCc3nc(NC(=O)NCCc4cn(CCF)cn4)sc3C2)cnc1Cl` [Compound 38] as the compound, how does the Ki read?
Answer: Its Ki is under 100 nM.

Question: With `COc1cc(N2CCc3nc(NC(=O)CCNC(C)=O)sc3C2)cnc1Cl` [Compound 44] as the compound, how does the Ki read?
Answer: Its Ki is under 100 nM.

Question: How did the Ki turn out when `CCOCCCNC(=O)Nc1nc2c(s1)CN(c1cnc(Cl)c(OC)c1)CC2` [Compound 39] was run?
Answer: The Ki was under 100 nM.

Question: `COCCNC(=O)Nc1nc2c(s1)CN(c1cnc(Cl)c(OC)c1)CC2` [Compound 35] was tested. Which Ki did it give?
Answer: Its Ki is under 100 nM.

Question: Which Ki does the source give for `COc1cc(N2CCc3nc(NC(=O)N4CCCC4)sc3C2)cnc1Cl` [Compound 57] here?
Answer: The Ki was under 100 nM.

Question: `CCNC(=O)Nc1nc2c(s1)CN(c1cnc(OC)c(OC)c1)CC2` [Compound 10] was tested. Which Ki did it give?
Answer: The Ki was under 100 nM.

Question: With `COc1cc(N2CCc3nc(NC(=O)N4CC(OC)C4)sc3C2)cnc1Cl` [Compound 51] as the compound, how does the Ki read?
Answer: Its Ki is under 100 nM.

Question: With `COc1cc(N2CCc3nc(NC(=O)CCNC(=O)c4ccccn4)sc3C2)cnc1OC` [Compound 32] as the compound, how does the Ki read?
Answer: The Ki was under 100 nM.

Question: How did the Ki turn out when `CCCOCCNC(=O)Nc1nc2c(s1)CN(c1cnc(OC)c(OC)c1)CC2` [Compound 16] was run?
Answer: Its Ki is under 100 nM.

Question: Which Ki does the source give for `CCOC(=O)CCNC(=O)Nc1nc2c(s1)CN(c1cnc(Cl)c(OC)c1)CC2` [Compound 52] here?
Answer: The Ki was < 20 nM and 3 nM and < 100 nM.

Same assay, conditions: Ki for PI3Kγ, 3 μM ATP, 30 μM PI(4,5)P2, 2 nM final enzyme, 30 min at 25° C.; competitive tight binding Ki fit

Question: `COc1cc(N2CCc3nc(NC(=O)NCCCl)sc3C2)cnc1OC` [Compound 11] was tested. Which Ki did it give?
Answer: The Ki was under 100 nM.

Question: Which Ki does the source give for `COc1cncc(N2CCc3nc(NC(=O)CF)sc3C2)c1` [Compound 19] here?
Answer: The Ki was under 100 nM.
